Measured values as given in patent US12319655B2, “RAF kinase inhibitors and methods of use thereof” (Deciphera Pharmaceuticals, LLC, priority 2021, dated 2025).
Like-named read-outs stand apart in the source and are kept apart here.

Columns and labels:
[1] = test system: WM3928 cells; experiment: WM3928 Cell Proliferation Assay (1); type: cell-based
In short: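 IC50 was derived from resazurin fluorescence (ex 540, em 600 nm) after a 6–7 h dye incubation. Before that, cells had 67–72 h of compound exposure at 37 °C, 5% CO2.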

[2] = target: C-Raf kinase (SEQ. ID NO: 3) (Homo sapiens (Human), UniProt P04049, Y340D/Y341D); experiment: Biochemical Assay for C-Raf (1); settings: Table J
In short: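 IC50 values come from a four-parameter fit of percent inhibition, using the reaction rate over 4–5 h of a 6 h continuous 340 nm read at 30 °C. The enzyme mix was C-Raf 0.43 nM, MEK substrate 30.1 nM and ATP 1 mM, in a PK/LDH NADH-coupled format in Tris pH 7.5 with 1% DMSO.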

[3] = target: A-Raf kinase (SEQ. ID No: 1) (Homo sapiens (Human), UniProt P10398, Y301D/Y302D); experiment: Biochemical Assay for A-Raf (1); settings: Table J
In short: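 IC50 values were derived by four-parameter sigmoidal fitting of percent inhibition, calculated from reaction rates over the 4–5 h window. Absorbance at 340 nm was tracked for 6 h at 30 °C via coupled PK/LDH NADH depletion. Conditions: 1 mM ATP, 30.1 nM MEK substrate, 5.55 nM A-Raf (Y301D/Y302D), Tris pH 7.5, 1% DMSO.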

[4] = target: B-Raf (V600E) (SEQ. ID NO: 4) kinase (Homo sapiens (Human), UniProt P15056, V600E); experiment: Biochemical Assay for B-Raf (V600E) (1); settings: Table J, BRAF V600E
In short: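 Serially diluted compounds tested against 0.03 nM enzyme with 30.1 nM MEK substrate and 1 mM ATP (Tris pH 7.5, 15 mM MgCl2), ATP use coupled to NADH loss via PK/LDH. A340 monitored continuously 6 h, 30 °C; IC50 fitted (four-parameter) from the 3–4 h rate versus no-compound and known-inhibitor controls.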

[5] = assay version (1), read-out: CRAF (1) IC50
[6] = assay version (1), read-out: ARAF (1) IC50
[7] = assay version (1), read-out: BRAF VE (1) IC50
[8] = biochemical assay (1), read-out: CRAF (1)
[9] = biochemical assay (1), read-out: ARAF (1)
[10] = biochemical assay (1), read-out: BRAF VE (1)

A-Raf kinase (SEQ. ID No: 1), sequence (P10398 other isoform, or with tags, fused parts or gaps Y301D (already in the parent)/Y302D (already in the parent)): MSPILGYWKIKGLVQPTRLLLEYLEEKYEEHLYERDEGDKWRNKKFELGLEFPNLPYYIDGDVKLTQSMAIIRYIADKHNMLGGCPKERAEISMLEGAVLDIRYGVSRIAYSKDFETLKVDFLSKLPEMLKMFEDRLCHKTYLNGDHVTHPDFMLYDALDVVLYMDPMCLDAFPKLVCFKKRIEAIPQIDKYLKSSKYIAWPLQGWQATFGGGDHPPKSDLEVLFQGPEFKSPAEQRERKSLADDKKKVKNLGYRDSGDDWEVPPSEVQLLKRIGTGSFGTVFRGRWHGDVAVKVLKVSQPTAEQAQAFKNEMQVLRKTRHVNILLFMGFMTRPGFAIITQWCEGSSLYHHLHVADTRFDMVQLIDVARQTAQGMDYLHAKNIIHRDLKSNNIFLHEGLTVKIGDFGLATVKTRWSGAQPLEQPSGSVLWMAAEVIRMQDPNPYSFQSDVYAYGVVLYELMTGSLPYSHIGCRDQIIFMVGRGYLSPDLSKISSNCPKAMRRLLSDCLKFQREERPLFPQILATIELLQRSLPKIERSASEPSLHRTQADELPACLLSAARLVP
B-Raf (V600E) (SEQ. ID NO: 4) kinase, sequence (P15056 416-766 V600E): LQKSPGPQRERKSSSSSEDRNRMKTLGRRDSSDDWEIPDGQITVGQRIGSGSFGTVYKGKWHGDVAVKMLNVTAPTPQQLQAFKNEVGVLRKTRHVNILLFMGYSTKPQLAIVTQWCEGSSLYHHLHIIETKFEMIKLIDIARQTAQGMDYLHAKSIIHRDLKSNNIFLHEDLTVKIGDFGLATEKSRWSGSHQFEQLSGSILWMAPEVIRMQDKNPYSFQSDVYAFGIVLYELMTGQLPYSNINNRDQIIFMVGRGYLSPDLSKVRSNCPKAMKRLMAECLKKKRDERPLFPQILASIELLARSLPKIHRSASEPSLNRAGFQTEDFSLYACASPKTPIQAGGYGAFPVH
C-Raf kinase (SEQ. ID NO: 3), sequence (P04049 307-648 Y340D/Y341D): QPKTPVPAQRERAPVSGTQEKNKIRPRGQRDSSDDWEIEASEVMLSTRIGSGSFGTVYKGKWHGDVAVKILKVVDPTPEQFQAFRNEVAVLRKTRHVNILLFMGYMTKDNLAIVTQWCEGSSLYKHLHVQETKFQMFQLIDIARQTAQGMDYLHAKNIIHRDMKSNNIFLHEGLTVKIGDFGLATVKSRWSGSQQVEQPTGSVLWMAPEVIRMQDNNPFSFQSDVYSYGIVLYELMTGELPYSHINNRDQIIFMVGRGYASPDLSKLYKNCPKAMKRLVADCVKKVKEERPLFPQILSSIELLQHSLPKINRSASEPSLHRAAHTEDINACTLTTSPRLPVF

Row | SMILES | IC50 [1] [µM] | IC50 [2, 5] [µM] | IC50 [3, 6] [µM] | IC50 [4, 7] [µM] | IC50 [2, 8] [µM] | IC50 [3, 9] [µM] | IC50 [4, 10] [µM]
1 | CC(=O)Nc1cc(-c2cc(-c3cc(NC(=O)c4ccnc(C(F)(F)F)c4)ccc3C)nc(N(C)C)n2)ccn1 [Example 41, N-(3-(6-(2-acetamidopyridin-4-yl)-2-(dimethylamino)pyrimidin-4-yl)-4-methylphenyl)-2-(trifluoromethyl)isonicotinamide] | ≤ 0.1 | ≤ 0.1 | 1 to 10 | ≤ 0.1 | – | – | –
2 | CNC(=O)c1cc(-c2cc(-c3cc(NC(=O)c4ccnc(C(F)(F)F)c4)cnc3C)ccn2)ccn1 [Example 42] | 1 to 10 | ≤ 0.1 | 1 to 10 | ≤ 0.1 | – | – | –
3 | Cc1ccc(NC(=O)c2ccnc(C(C)(C)C#N)c2)cc1-c1cncc(-c2ccnc3c2CC(=O)N3)n1 [Example 43] | ≤ 0.1 | ≤ 0.1 | 1 to 10 | ≤ 0.1 | – | – | –
4 | CNC(=O)c1cc(-c2cc(-c3cc(NC(=O)c4ccnc(C(F)F)c4)ccc3C)ccn2)ccn1 [Example 48] | 0.5 to 1 | ≤ 0.1 | 1 to 10 | ≤ 0.1 | – | – | –
5 | CNC(=O)c1cc(-c2cc(-c3cc(NC(=O)c4ccnc(C(C)(C)C#N)c4)ccc3C)ccn2)ccn1 [Example 50] | ≤ 0.1 | ≤ 0.1 | 1 to 10 | ≤ 0.1 | – | – | –
6 | CNC(=O)c1cc(-c2cc(-c3cc(NC(=O)c4cccc(C(F)(F)F)c4)cnc3C)ccn2)ccn1 [Example 52] | 0.1 to 0.5 | ≤ 0.1 | 1 to 10 | ≤ 0.1 | – | – | –
7 | Cc1ccc(NC(=O)c2ccnc(C(F)(F)F)c2)cc1-c1ccnc(-c2ccnc(NC(=O)C3CC3)c2)c1 [Example 54] | ≤ 0.1 | ≤ 0.1 | 1 to 10 | ≤ 0.1 | – | – | –
8 | Cc1ccc(NC(=O)c2ccnc(C(C)(C)C#N)c2)cc1-c1ccnc(-c2ccnc(N)c2)c1 [Example 56] | 0.5 to 1 | ≤ 0.1 | 1 to 10 | ≤ 0.1 | – | – | –
9 | Cc1ccc(NC(=O)c2ccnc(C(C)(C)C#N)c2)cc1-c1ccnc(-c2ccnc(NC(=O)CC#N)c2)c1 [Example 63] | ≤ 0.1 | ≤ 0.1 | 0.5 to 1 | ≤ 0.1 | – | – | –
10 | CC(=O)Nc1cc(-c2cccc(-c3cc(NC(=O)c4ccnc(C(F)(F)F)c4)cnc3C)c2)ccn1 [Example 64] | – | ≤ 0.1 | 1 to 10 | ≤ 0.1 | – | – | –
11 | CC(=O)Nc1cc(-c2cc(-c3cc(NC(=O)c4ccnc(C(F)(F)F)c4)ccc3F)cc(C)n2)ccn1 [Example 65] | – | ≤ 0.1 | 1 to 10 | ≤ 0.1 | – | – | –
12 | CCOc1ncc(-c2cc(NC(=O)c3ccnc(C(F)(F)F)c3)ccc2C)cc1-c1ccnc(NC(C)=O)c1 [Example 68] | ≤ 0.1 | ≤ 0.1 | 1 to 10 | ≤ 0.1 | – | – | –
13 | CCOc1ncc(-c2cc(NC(=O)c3ccnc(C(F)(F)F)c3)ccc2C)cc1-c1ccnc(C(=O)NC)c1 [Example 69] | ≤ 0.1 | 0.1 to 0.5 | 1 to 10 | ≤ 0.1 | – | – | –
14 | Cc1ncc(NC(=O)c2ccnc(C(F)(F)F)c2)cc1-c1cccc(-c2ccnc(NC(=O)C3CC3)c2)c1 [Example 70] | – | ≤ 0.1 | 0.5 to 1 | ≤ 0.1 | – | – | –
15 | CCOc1ncc(-c2cc(NC(=O)c3ccnc(C(F)(F)F)c3)ccc2C)cc1-c1ccnc(NC(=O)C2CC2)c1 [Example 71] | ≤ 0.1 | 0.1 to 0.5 | 1 to 10 | ≤ 0.1 | – | – | –
16 | Cc1cc(-c2cc(NC(=O)c3ccnc(C(F)(F)F)c3)ccc2F)cc(-c2ccnc(NC(=O)C3CC3)c2)n1 [Example 72] | 0.1 to 0.5 | ≤ 0.1 | 1 to 10 | ≤ 0.1 | – | – | –
17 | CNC(=O)c1cc(-c2cccc(-c3cc(NC(=O)c4ccnc(C(F)(F)F)c4)cnc3C)c2)ccn1 [Example 73] | – | ≤ 0.1 | 1 to 10 | ≤ 0.1 | – | – | –

Row | SMILES | IC50 [1] [µM] | IC50 [2, 5] [µM] | IC50 [3, 6] [µM] | IC50 [4, 7] [µM] | IC50 [2, 8] [µM] | IC50 [3, 9] [µM] | IC50 [4, 10] [µM]
18 | CNC(=O)c1cc(-c2cc(-c3cc(C(=O)Nc4ccnc(C(C)(C)C#N)c4)ccc3C)ccn2)ccn1 [Example 74] | 0.1 to 0.5 | 0.1 to 0.5 | 1 to 10 | ≤ 0.1 | – | – | –
19 | CC(=O)Nc1cc(-c2cc(-c3cc(NC(=O)c4ccnc(C(C)(C)C#N)c4)c(F)cc3C)ccn2)ccn1 [Example 75] | – | ≤ 0.1 | 1 to 10 | ≤ 0.1 | – | – | –
20 | Cc1cc(F)c(NC(=O)c2ccnc(C(C)(C)C#N)c2)cc1-c1ccnc(-c2ccnc(NC(=O)C3CC3)c2)c1 [Example 76] | – | ≤ 0.1 | 1 to 10 | ≤ 0.1 | – | – | –
21 | Cc1ccc(NC(=O)c2ccnc(C(C)(C)C#N)c2)cc1-c1cccc(-c2cc(NC(=O)C3CC3)ncn2)c1 [Example 77] | ≤ 0.1 | ≤ 0.1 | 1 to 10 | ≤ 0.1 | – | – | –
22 | CNC(=O)c1cc(-c2nccc(-c3cc(NC(=O)c4ccnc(C(C)(C)C#N)c4)ccc3C)n2)ccn1 [Example 78] | ≤ 0.1 | ≤ 0.1 | 1 to 10 | ≤ 0.1 | – | – | –
23 | CC(=O)Nc1cc(-c2cccc(-c3cc(NC(=O)c4ccnc(C(C)(C)C#N)c4)ccc3C)c2)ncn1 [Example 79] | – | ≤ 0.1 | 1 to 10 | ≤ 0.1 | – | – | –
24 | CNC(=O)c1cc(-c2cncc(-c3cc(C(=O)Nc4cnn(C(C)C)c4)ccc3C)n2)ccn1 [Example 81] | – | 0.1 to 0.5 | 1 to 10 | ≤ 0.1 | – | – | –
25 | CC(=O)Nc1cc(-c2cc(-c3cc(NC(=O)c4ccnc(C(F)(F)F)c4)ccc3C)nc(C)n2)ccn1 [Example 83] | – | ≤ 0.1 | 1 to 10 | ≤ 0.1 | – | – | –
26 | CC(=O)Nc1cc(-c2cc(-c3cc(NC(=O)c4ccnc(C(F)(F)F)c4)ccc3C)ncn2)ccn1 [Example 84] | – | ≤ 0.1 | 1 to 10 | ≤ 0.1 | – | – | –
27 | CC(=O)Nc1cc(-c2cncc(-c3cc(C(=O)Nc4cnn(C(C)C)c4)ccc3C)n2)ccn1 [Example 87] | – | ≤ 0.1 | 1 to 10 | ≤ 0.1 | – | – | –
28 | Cc1ccc(NC(=O)c2ccnc(C(F)(F)F)c2)cc1-c1cncc(-c2ccnc(N)c2)n1 [Example 90] | – | ≤ 0.1 | 1 to 10 | ≤ 0.1 | – | – | –
29 | CC(=O)Nc1cc(-c2ccnc(-c3cc(NC(=O)c4ccnc(C(F)(F)F)c4)ccc3C)n2)ccn1 [Example 92] | – | ≤ 0.1 | 0.1 to 0.5 | ≤ 0.1 | – | – | –
30 | Cc1ccc(NC(=O)c2cn(C(C)C)nc2C)cc1-c1cc(-c2ccnc(NC(=O)C3CC3)c2)cnn1 [Example 373] | – | – | – | – | ≤ 0.1 | 1 to 10 | 0.1 to 0.5
31 | CNC(=O)c1cc(-c2cnnc(-c3cc(NC(=O)CCC4(F)CC4)cnc3C)c2)ccn1 [Example 374] | – | – | – | – | 1 to 10 | 1 to 10 | 1 to 10
32 | Cc1ccc(NC(=O)c2cnn(CC(F)(F)F)c2)cc1-c1cncc(-c2ccnc(C(N)=O)c2)c1 [Example 381] | – | – | – | – | ≤ 0.1 | 1 to 10 | 0.1 to 0.5
33 | CNC(=O)c1cc(-c2cncc(-c3cc(NC(=O)c4cnn(CC(F)(F)F)c4)ccc3C)c2)ncn1 [Example 382] | – | – | – | – | ≤ 0.1 | 1 to 10 | 0.1 to 0.5
34 | CNC(=O)c1cc(-c2cncc(-c3cc(NC(=O)Cn4cc(C(C)C)nn4)ccc3C)c2)ncn1 [Example 383] | – | – | – | – | 0.1 to 0.5 | 1 to 10 | 1 to 10
